{"source": "patent US20250263436A1", "about": "“BROAD-SPECTRUM ANTIVIRAL DRUG FOR ENTEROVIRUS, AND APPLICATION” (WUHAN INSTITUTE OF VIROLOGY, CHINESE ACADEMY OF SCIENCES, priority 2020, published 2025)", "assay_type_in_all_cases": "cell-based", "key": {"CVA16": {"tested_on": "CVA16", "assay": "Inhibition of CVA16 in RD cells (viral RNA, qRT-PCR)", "conditions": "anti-CVA16 in RD cells", "protocol": "(§1) (1) RD cells were plated in a 24-well plate.\n(2) When the cells grew to a confluence of 70%-80%, the DMEM medium containing 10% serum was replaced with a DMEM medium containing 2% serum (the DMEM medium containing 2% serum was added in each well at an amount of 0.5 mL), and 5 μL of CVA16 virus of 1×10^6 PFU/mL was added to each well.\n(3) After 1 h, different polypeptides with final concentrations of 0.3125 μM, 0.625 μM, 1.25 μM, 2.5 μM, and 5 μM were added respectively. The group without polypeptide added was used as a control.\n(4) The samples were collected 24 h after the infection of CVA16 virus, and RNA was extracted with the total RNA extraction kit.\n(§2) (5) The supernatant was discarded, then 350 μL of TRK lysate was added to each well, and the plate was put on a shaker for 5 min.\n(§3) (6) 350 μL of 70% ethanol (DEPC) was added to each well, and then the plate was put on a shaker for 5 min.\n(§4) (7) The solution in each well was transferred to a RNA extraction column for 1 min of centrifugation at 12000 g.\n(§5) (8) The solution obtained in the recovery tube was reloaded on the column again for 1 min of centrifugation at 12000 g.\n(§6) (9) RNA washing buffer 1 was added in the column for 30 s of centrifugation at 12000 g. […]\n(14) 2 μL of RNA sample was subjected to a fluorescence quantitative experiment using the one step qRT-PCR kit."}, "CVB3": {"tested_on": "CVB3", "assay": "Inhibition of CVB3 in RD cells (viral RNA, qRT-PCR)", "conditions": "inhibiting CVB3 in RD cells", "protocol": "as §1\n(2) When the cells grew to a confluence of 70%-80%, the DMEM medium containing 10% serum was replaced with a DMEM medium containing 2% serum (the DMEM medium containing 2% serum was added in each well at an amount of 0.5 mL), and 5 μL of CVB3 virus of 1×10^6 PFU/mL was added to each well.\n(3) After 1 h, the polypeptides with final concentrations of 0.3125 μM, 0.625 μM, 1.25 μM, 2.5 μM, and 5 μM were added respectively. The group without polypeptide added was used as a control.\n(4) The samples were collected 24 h after the infection of CVB3 virus, and RNA was extracted with the total RNA extraction kit.\nas §2, §3, §4, §5, §6\n(14) 2 μL of RNA sample was subjected to a fluorescence quantitative experiment using the one step qRT-PCR kit. […]"}, "RD cells": {"tested_on": "RD cells", "assay": "Toxicity assay in RD cells (CCK-8)", "conditions": "24 h", "protocol": "(§7) (1) Different cells were plated in a 96-well plate at 100 μL per well.\n(§8) (2) When the cells grew to a confluence of 70%-80%, the DMEM medium containing 10% serum was replaced with a DMEM medium containing 2% serum, and a certain concentration gradient of polypeptide RQ was added, so that the final concentrations of the polypeptide in the wells were 0.073242 μM, 0.146484 μM, 0.292969 μM, 0.585938 μM, 1.171875 μM, 2.34375 μM, 4.6875 μM, 9.375 μM, 18.75 μM, 37.5 μM, 75 μM, 150 μM, and 300 μM, respectively.\n(§9) (3) The samples were collected 24 h after the addition of the polypeptide, and then 10 μL of live cell detection reagent CCK-8 was added to each well and mixed well.\n(§10) (4) The plate was placed at 37° C. for 2 h.\n(§11) (5) The absorbance value at OD450 was detected by a microplate reader.\n(§12) (1) RD cells were plated in a 96-well plate at 100 μL per well.\n(§13) (2) When the cells grew to a confluence of 70%-80%, the DMEM medium containing 10% serum was replaced with a DMEM medium containing 2% serum, and B-RQ was added so that the final concentrations in the wells were 0.46 μM, 2.34 μM, 4.68 μM, 9.37 μM, 18.75 μM, 37.5 μM, 75 μM, and 150 μM."}, "[1]": {"assay": "Toxicity assay in RD cells (CCK-8)", "conditions": "human, RD cells, 24 h", "protocol": "as §7, §8, §9, §10, §11, §12, §13"}}, "note": "Several values for one entry are separate records, joined by “and”; a condition that tells them apart may be missing. Equal entries are not always repeated."}
{"smiles": "CC[C@H](C)[C@H](NC(=O)[C@H](C)NC(=O)[C@H](CO)NC(=O)[C@H](CCCNC(=N)N)NC(=O)[C@H](CC(N)=O)NC(=O)[C@H](CC(N)=O)NC(=O)[C@H](Cc1ccc(O)cc1)NC(=O)[C@H](CCC(=O)O)NC(=O)[C@H](CCCNC(=N)N)NC(=O)CNC(=O)[C@H](CO)NC(=O)CNC(=O)[C@H](CCCNC(=N)N)NC(=O)[C@H](CCCNC(=N)N)NC(=O)[C@H](CCCNC(=N)N)NC(=O)[C@H](CCC(N)=O)NC(=O)[C@H](CCCNC(=N)N)NC(=O)[C@H](CCCNC(=N)N)NC(=O)[C@H](CCCCN)NC(=O)[C@H](CCCCN)NC(=O)[C@H](CCCNC(=N)N)NC(=O)CNC(=O)[C@@H](N)Cc1ccc(O)cc1)C(=O)NCC(=O)N[C@@H](CC(N)=O)C(=O)N[C@H](C(=O)N[C@H](C(=O)N[C@@H](CCC(=O)O)C(=O)N[C@@H](C)C(=O)N[C@@H](CC(C)C)C(=O)N[C@@H](Cc1ccccc1)C(=O)N[C@@H](CCC(N)=O)C(=O)O)[C@@H](C)CC)[C@@H](C)O", "note": "[RQ]", "values": [{"measurement": "IC50", "setting": "CVA16", "value": 2160, "unit": "nM"}, {"measurement": "IC50", "setting": "CVB3", "value": 2310, "unit": "nM"}, {"measurement": "Viability of RD cell (%)", "setting": "RD cells; RQ 0.073242 μM", "value": "100.3321% and 99.8893%"}, {"measurement": "Viability of RD cell (%)", "setting": "RD cells; RQ 0.146484 μM", "value": "102.3247% and 99.94%"}, {"measurement": "Viability of RD cell (%)", "setting": "RD cells; RQ 0.292969 μM", "value": "100.2214% and 99.17%"}, {"measurement": "Viability of RD cell (%)", "setting": "RD cells; RQ 0.585938 μM", "value": "103.5978% and 102.7122%"}, {"measurement": "Viability of RD cell (%)", "setting": "RD cells; RQ 1.171875 μM", "value": "99% and 99.23%"}, {"measurement": "Viability of RD cell (%)", "setting": "RD cells; RQ 2.34375 μM", "value": 98.51, "unit": "%"}, {"measurement": "Viability of RD cell (%)", "setting": "RD cells; RQ 4.6875 μM", "value": "99.45% and 100.8856%"}, {"measurement": "Viability of RD cell (%)", "setting": "RD cells; RQ 9.375 μM", "value": "100.7196% and 102.6568%"}, {"measurement": "Viability of RD cell (%)", "setting": "RD cells; RQ 18.75 μM", "value": "103.4317% and 102.4354%"}, {"measurement": "Viability of RD cell (%)", "setting": "RD cells; RQ 37.5 μM", "value": "103.9852% and 103.5424%"}, {"measurement": "Viability of RD cell (%)", "setting": "RD cells; RQ 75 μM", "value": "103.5978% and 102.9889%"}, {"measurement": "Viability of RD cell (%)", "setting": "RD cells; RQ 150 μM", "value": "8.782% and 8.007%"}, {"measurement": "viability at 24 h, 0.073242 µM", "setting": "[1]; RQ 0.073242 μM, read-out: Viability of RD cell (%)", "value": 99.8, "unit": "%"}, {"measurement": "viability at 24 h, 0.146484 µM", "setting": "[1]; RQ 0.146484 μM, read-out: Viability of RD cell (%)", "value": 99.2, "unit": "%"}, {"measurement": "viability at 24 h, 0.292969 µM", "setting": "[1]; RQ 0.292969 μM, read-out: Viability of RD cell (%)", "value": 101, "unit": "%"}, {"measurement": "viability at 24 h, 0.585938 µM", "setting": "[1]; RQ 0.585938 μM, read-out: Viability of RD cell (%)", "value": 98.9, "unit": "%"}, {"measurement": "viability at 24 h, 1.17188 µM", "setting": "[1]; RQ 1.171875 μM, read-out: Viability of RD cell (%)", "value": 99.6, "unit": "%"}, {"measurement": "viability at 24 h, 2.34375 µM", "setting": "[1]; RQ 2.34375 μM, read-out: Viability of RD cell (%)", "value": 98.8, "unit": "%"}, {"measurement": "viability at 24 h, 4.6875 µM", "setting": "[1]; RQ 4.6875 μM, read-out: Viability of RD cell (%)", "value": 98.3, "unit": "%"}, {"measurement": "viability at 24 h, 9.375 µM", "setting": "[1]; RQ 9.375 μM, read-out: Viability of RD cell (%)", "value": 98.4, "unit": "%"}, {"measurement": "viability at 24 h, 18.75 µM", "setting": "[1]; RQ 18.75 μM, read-out: Viability of RD cell (%)", "value": 101, "unit": "%"}, {"measurement": "viability at 24 h, 37.5 µM", "setting": "[1]; RQ 37.5 μM, read-out: Viability of RD cell (%)", "value": 101, "unit": "%"}, {"measurement": "viability at 24 h, 75 µM", "setting": "[1]; RQ 75 μM, read-out: Viability of RD cell (%)", "value": 102, "unit": "%"}, {"measurement": "viability at 24 h, 150 µM", "setting": "[1]; RQ 150 μM, read-out: Viability of RD cell (%)", "value": 8.73, "unit": "%"}, {"measurement": "CC50 at 24 h", "setting": "[1]; CCK-8", "value": "> 150000", "unit": "nM"}]}
